In patent US20220306659A1, “COMPOUND INHIBITING AND INDUCING DEGRADATION OF EGFR AND ALK” (BEIJING TIDE PHARMACEUTICAL CO., LTD., priority 2019, published 2022):

Assays:
Format in all cases: cell-based
[1] = biological target: Ba/F3(EGFR^Del19/T790M/C797S) cells (Homo sapiens, UniProt P00533, DEL746-750/T790M/C797S, cells depend on it); test: Assay of activity on Ba/F3 cells (CTG, 72 h); settings: read-out: IC50 (nM) Ba/F3 (EGFR^Del19/T790M/C797S)
In short: (§1)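 Ba/F3 cells dependent on each EGFR triple mutant were exposed to 3-fold compound dilutions for 72 h at 37° C, 5% CO2, with CellTiter-Glo luminescence as the read-out.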

[2] = biological target: T1, Ba/F3(EML4-ALK) cells (Homo sapiens, UniProt Q9UM73); test: Assay of activity on Ba/F3(EML4-ALK) cells (CTG, 72 h); settings: read-out: IC50 (nM) Ba/F3(EML4-ALK)
T1 construct: fused on or other part: Q9HC35 (Echinoderm microtubule-associated protein-like 4)
T1 sequence (Q9UM73 whole entry, change not shown, the tested form may be a part): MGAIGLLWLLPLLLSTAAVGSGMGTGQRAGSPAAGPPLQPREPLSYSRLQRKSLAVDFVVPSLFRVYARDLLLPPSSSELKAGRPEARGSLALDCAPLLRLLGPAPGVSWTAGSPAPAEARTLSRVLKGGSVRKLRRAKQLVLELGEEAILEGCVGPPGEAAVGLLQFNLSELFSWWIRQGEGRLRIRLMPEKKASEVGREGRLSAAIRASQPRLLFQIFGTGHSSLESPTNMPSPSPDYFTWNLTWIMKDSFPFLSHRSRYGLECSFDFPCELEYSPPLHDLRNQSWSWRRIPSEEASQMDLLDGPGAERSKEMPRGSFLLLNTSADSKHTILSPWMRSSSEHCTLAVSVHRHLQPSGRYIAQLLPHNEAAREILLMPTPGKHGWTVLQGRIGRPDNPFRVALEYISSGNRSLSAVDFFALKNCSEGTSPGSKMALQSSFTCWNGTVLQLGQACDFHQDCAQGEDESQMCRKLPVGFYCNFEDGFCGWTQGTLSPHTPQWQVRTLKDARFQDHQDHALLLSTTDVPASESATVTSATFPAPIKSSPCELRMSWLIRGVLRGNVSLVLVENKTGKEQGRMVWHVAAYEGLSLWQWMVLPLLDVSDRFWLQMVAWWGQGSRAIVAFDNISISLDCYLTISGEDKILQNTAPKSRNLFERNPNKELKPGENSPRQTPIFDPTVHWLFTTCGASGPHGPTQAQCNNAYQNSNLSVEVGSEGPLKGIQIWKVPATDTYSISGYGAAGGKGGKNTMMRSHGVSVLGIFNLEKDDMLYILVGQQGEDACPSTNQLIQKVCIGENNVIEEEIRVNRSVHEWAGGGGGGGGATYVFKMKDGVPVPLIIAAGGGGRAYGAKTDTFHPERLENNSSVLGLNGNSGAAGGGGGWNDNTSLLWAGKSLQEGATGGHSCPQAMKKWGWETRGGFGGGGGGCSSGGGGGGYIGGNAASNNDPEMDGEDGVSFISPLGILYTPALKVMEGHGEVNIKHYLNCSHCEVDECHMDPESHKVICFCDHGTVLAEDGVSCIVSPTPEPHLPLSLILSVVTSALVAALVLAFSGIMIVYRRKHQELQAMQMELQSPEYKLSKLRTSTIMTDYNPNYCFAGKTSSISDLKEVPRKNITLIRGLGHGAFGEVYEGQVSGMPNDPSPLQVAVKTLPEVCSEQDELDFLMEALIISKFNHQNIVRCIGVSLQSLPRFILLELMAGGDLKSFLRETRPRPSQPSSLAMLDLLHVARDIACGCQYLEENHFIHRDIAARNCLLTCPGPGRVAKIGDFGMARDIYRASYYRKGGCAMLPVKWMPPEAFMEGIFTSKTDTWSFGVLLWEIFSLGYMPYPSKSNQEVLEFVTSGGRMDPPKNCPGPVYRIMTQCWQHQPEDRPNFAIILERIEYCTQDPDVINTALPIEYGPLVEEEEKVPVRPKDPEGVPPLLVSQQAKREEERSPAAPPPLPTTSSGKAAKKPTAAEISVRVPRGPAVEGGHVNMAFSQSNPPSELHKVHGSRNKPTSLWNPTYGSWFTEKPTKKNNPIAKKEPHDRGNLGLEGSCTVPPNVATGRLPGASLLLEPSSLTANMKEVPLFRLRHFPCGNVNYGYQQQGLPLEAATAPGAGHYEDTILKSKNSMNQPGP
Description: Assay of activity on Ba/F3(EML4-ALK) cells
(1) Ba/F3(EML4-ALK) cells were cultured according to the requirements of ATCC, incubated in an incubator at 37° C. and 5% CO2, and analyzed by index; cells with viability of >90% can be used in the assay, and cells were seeded in a 384-well plate (PerkinElmer, 6007680) with 700 cells/well, 30 μl/well.
(2) A compound stock solution was prepared, and diluted 3× to obtain a compound dilution; 30 nL of the serial dilution was added to a 384-well plate (784075, Greiner) by Echo 550, and cells were incubated in an incubator at 37° C. and 5% CO2 for 72 h.
(3) 30 μL of CTG was added to each well, and the 384-well plate was shaken on a Plate shaker (QILINBEIER, QB-9002); the 384-well plate was incubated in the dark at 37° C. and 5% CO2 for 30 min, and the chemiluminescence value was read by Envision (PerkinElmer, EnVision 2104).
The percent inhibition rate (% inhibition) was calculated by the formula below
LUMcmpd: Luminescence value of assay compound.
LUMpositive: Average LUM value of positive drug at a concentration of 10 μM.
LUM^vehicle: Average LUM value of negative control group without drug treatment.
The nonlinear regression curve (dose response-variable slope) between the value of inhibition rate (%) and the logarithm of compound concentration was fitted with graphpad prism 8.0, the effect dose curve of compound was drawn, and the IC50 value was calculated.
Y=Bottom+(Top−Bottom)/(1+10^((LogIC50−X)*HillSlope))
X-axis: logarithm of compound concentration; Y axis: inhibition rate (% inhibition).

[3] = biological target: Ba/F3(EGFR^L858R/T790M/C797S) cells (Homo sapiens, UniProt P00533, T790M/C797S/L858R, cells depend on it); test: Assay of activity on Ba/F3 cells (CTG, 72 h); settings: read-out: IC50 (nM) Ba/F3 (EGFR^L858R/T790M/C797S)
Sequence of Ba/F3(EGFR^L858R/T790M/C797S) cells (P00533 whole entry T790M/C797S/L858R): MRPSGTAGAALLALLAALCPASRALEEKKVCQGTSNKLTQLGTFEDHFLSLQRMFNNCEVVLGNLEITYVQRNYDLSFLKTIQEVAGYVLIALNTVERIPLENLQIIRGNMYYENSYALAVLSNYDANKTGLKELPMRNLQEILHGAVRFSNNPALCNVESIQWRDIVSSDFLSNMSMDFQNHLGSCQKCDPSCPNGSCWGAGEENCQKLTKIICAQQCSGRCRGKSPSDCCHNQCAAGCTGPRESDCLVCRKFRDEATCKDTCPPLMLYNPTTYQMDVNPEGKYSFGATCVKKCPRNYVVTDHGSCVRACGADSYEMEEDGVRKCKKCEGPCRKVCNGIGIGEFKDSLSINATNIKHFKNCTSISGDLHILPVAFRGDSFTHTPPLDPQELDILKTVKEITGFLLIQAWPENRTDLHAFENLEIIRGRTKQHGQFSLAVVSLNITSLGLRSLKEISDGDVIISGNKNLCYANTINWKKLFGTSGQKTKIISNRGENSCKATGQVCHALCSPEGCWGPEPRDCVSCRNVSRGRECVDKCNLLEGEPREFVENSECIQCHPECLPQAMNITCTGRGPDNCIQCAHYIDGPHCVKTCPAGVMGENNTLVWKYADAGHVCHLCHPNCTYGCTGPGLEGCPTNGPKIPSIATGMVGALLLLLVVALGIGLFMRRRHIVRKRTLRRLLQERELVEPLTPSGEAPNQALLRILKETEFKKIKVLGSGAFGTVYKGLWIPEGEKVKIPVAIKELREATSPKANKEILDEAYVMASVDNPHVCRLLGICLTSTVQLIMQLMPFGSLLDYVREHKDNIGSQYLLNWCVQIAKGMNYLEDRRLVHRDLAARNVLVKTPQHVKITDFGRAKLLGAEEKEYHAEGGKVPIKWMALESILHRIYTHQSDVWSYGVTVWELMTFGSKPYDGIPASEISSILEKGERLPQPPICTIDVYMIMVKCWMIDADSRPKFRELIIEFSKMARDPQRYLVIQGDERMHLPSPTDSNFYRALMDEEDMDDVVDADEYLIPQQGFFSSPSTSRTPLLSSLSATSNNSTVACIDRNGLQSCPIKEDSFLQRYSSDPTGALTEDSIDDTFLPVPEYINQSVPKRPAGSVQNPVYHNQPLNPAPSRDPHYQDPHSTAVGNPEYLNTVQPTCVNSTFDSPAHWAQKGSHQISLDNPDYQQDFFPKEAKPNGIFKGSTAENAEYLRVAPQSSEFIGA
In short: as §1

Sequence of Ba/F3(EGFR^Del19/T790M/C797S) cells (P00533 with tags, fused parts or gaps DEL746-750/T790M/C797S): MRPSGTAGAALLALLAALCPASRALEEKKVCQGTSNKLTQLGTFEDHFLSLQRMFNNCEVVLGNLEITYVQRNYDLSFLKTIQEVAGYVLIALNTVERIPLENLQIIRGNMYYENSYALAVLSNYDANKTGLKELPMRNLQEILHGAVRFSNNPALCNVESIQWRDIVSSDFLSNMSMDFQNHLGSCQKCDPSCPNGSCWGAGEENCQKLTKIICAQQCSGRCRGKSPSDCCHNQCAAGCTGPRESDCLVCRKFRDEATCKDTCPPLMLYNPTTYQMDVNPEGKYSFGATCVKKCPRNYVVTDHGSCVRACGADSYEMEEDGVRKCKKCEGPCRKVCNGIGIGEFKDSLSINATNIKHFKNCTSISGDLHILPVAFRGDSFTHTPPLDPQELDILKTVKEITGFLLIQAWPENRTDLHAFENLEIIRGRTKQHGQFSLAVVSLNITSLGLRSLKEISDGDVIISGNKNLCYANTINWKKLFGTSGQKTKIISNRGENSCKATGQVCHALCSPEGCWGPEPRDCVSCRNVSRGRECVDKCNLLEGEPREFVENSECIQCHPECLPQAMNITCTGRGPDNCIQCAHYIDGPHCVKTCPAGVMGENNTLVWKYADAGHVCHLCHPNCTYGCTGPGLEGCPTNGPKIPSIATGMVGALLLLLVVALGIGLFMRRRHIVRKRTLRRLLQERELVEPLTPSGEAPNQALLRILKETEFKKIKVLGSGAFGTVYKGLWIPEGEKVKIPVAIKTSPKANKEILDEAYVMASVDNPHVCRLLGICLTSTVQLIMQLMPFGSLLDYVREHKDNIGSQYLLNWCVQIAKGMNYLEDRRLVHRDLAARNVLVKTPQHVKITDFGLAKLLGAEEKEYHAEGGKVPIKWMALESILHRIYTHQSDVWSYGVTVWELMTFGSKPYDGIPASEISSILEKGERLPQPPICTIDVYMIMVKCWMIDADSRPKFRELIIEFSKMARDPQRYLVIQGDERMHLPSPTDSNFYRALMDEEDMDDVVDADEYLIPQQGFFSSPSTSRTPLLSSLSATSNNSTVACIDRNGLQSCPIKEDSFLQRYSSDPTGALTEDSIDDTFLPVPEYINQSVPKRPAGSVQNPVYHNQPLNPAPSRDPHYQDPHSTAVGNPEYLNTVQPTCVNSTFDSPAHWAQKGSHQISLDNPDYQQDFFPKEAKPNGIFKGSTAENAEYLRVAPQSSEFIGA

Compound | GI50 [1] | GI50 [2] | GI50 [3]
COc1cc(N2CCC(N3CCN(CCCCCCCCC#Cc4ccc5c(c4)CN(C4CCC(=O)NC4=O)C5=O)CC3)CC2)ccc1Nc1ncc(Cl)c(Nc2ccccc2P(C)(C)=O)n1 (stereo not shown) [Compound C196, 3-(5-(10-(4-(1-(4-((5-chloro-4-((2-(dimethylphosphoryl)phenyl)amino)pyrimidin-2-yl)amino)-3-methoxyphenyl)piperidin-4-yl)piperazin-1-yl)dec-1-yn-1-yl)-1-oxoisoindolin-2-yl)piperidine-2,6-dione] | 1 to 100 nM | 1 to 100 nM | 
COc1cc(N2CCC3(CCN(CCOCC#Cc4cc(F)cc5c4CN(C4CCC(=O)NC4=O)C5=O)CC3)CC2)c(C)cc1Nc1ncc(Br)c(Nc2ccc3nccnc3c2P(C)(C)=O)n1 (stereo not shown) [Compound C310, 3-(4-(3-(2-(9-(4-((5-bromo-4-((5-(dimethylphosphoryl)quinoxalin-6-yl)amino)pyrimidin-2-yl)amino)-5-methoxy-2-methylphenyl)-3,9-diazaspiro[5.5]undecan-3-yl)ethoxy)prop-1-yn-1-yl)-6-fluoro-1-oxoisoindolin-2-yl)piperidine-2,6-dione] | 1 to 100 nM | 1 to 100 nM | 
COc1cc(N2CCC3(CCN(CCCCCC#Cc4ccc5c(c4)CN(C4CCC(=O)NC4=O)C5=O)CC3)CC2)c(C)cc1Nc1ncc(Br)c(Nc2ccc3nccnc3c2P(C)(C)=O)n1 (stereo not shown) [Compound C191, 3-(5-(7-(9-(4-((5-bromo-4-((5-(dimethylphosphoryl)quinoxalin-6-yl)amino)pyrimidin-2-yl)amino)-5-methoxy-2-methylphenyl)-3,9-diazaspiro[5.5]undecan-3-yl)hept-1-yn-1-yl)-1-oxoisoindolin-2-yl)piperidine-2,6-dione] | 1 to 100 nM | 101 to 200 nM | 
COc1cc(N2CCC3(CCN(CCCCCCCOc4cccc5c4CN(C4CCC(=O)NC4=O)C5=O)CC3)CC2)c(C)cc1Nc1ncc(Br)c(Nc2ccc3nccnc3c2P(C)(C)=O)n1 (stereo not shown) [Compound C211, 3-(4-((7-(9-(4-((5-bromo-4-((5-(dimethylphosphoryl)quinoxalin-6-yl)amino)pyrimidin-2-yl)amino)-5-methoxy-2-methylphenyl)-3,9-diazaspiro[5.5]undecan-3-yl)heptyl)oxy)-1-oxoisoindolin-2-yl)piperidine-2,6-dione] | 1 to 100 nM | 1 to 100 nM | 
COc1cc(N2CCC(N3CCN(CCCOCC#Cc4cccc5c4CN(C4CCC(=O)NC4=O)C5=O)CC3)CC2)ccc1Nc1ncc(Cl)c(Nc2ccccc2P(C)(C)=O)n1 (stereo not shown) [Compound C181, 3-(4-(3-(3-(4-(1-(4-((5-chloro-4-((2-(dimethylphosphoryl)phenyl)amino)pyrimidin-2-yl)amino)-3-methoxyphenyl)piperidin-4-yl)piperazin-1-yl)propoxy)prop-1-yn-1-yl)-1-oxoisoindolin-2-yl)piperidine-2,6-dione] | 1 to 100 nM | 1 to 100 nM | 
COc1cc(N2CCC3(CCN(CCCCCCCCC#Cc4cccc5c4CN(C4CCC(=O)NC4=O)C5=O)CC3)CC2)c(C)cc1Nc1ncc(Br)c(Nc2ccc3nccnc3c2P(C)(C)=O)n1 (stereo not shown) [Compound C189, 3-(4-(10-(9-(4-((5-bromo-4-((5-(dimethylphosphoryl)quinoxalin-6-yl)amino)pyrimidin-2-yl)amino)-5-methoxy-2-methylphenyl)-3,9-diazaspiro[5.5]undecan-3-yl)dec-1-yn-1-yl)-1-oxoisoindolin-2-yl)piperidine-2,6-dione] | 1 to 100 nM | 101 to 200 nM | 
COc1cc(N2CCC(N3CCN(CCOCC#Cc4cc(F)cc5c4CN(C4CCC(=O)NC4=O)C5=O)CC3)CC2)ccc1Nc1ncc(Cl)c(Nc2ccccc2P(C)(C)=O)n1 (stereo not shown) [Compound C184, 3-(4-(3-(2-(4-(1-(4-((5-chloro-4-((2-(dimethylphosphoryl)phenyl)amino)pyrimidin-2-yl)amino)-3-methoxyphenyl)piperidin-4-yl)piperazin-1-yl)ethoxy)prop-1-yn-1-yl)-6-fluoro-1-oxoisoindolin-2-yl)piperidine-2,6-dione] | 1 to 100 nM | 1 to 100 nM | 
COc1cc(N2CCC(N3CCN(CCCCCCCC#Cc4ccc5c(c4)CN(C4CCC(=O)NC4=O)C5=O)CC3)CC2)ccc1Nc1ncc(Cl)c(Nc2ccccc2P(C)(C)=O)n1 (stereo not shown) [Compound C195, 3-(5-(9-(4-(1-(4-((5-chloro-4-((2-(dimethylphosphoryl)phenyl)amino)pyrimidin-2-yl)amino)-3-methoxyphenyl)piperidin-4-yl)piperazin-1-yl)non-1-yn-1-yl)-1-oxoisoindolin-2-yl)piperidine-2,6-dione] | 1 to 100 nM | 1 to 100 nM | 
COc1cc(N2CCC(N3CCN(CCCCOCC#Cc4cccc5c4CN(C4CCC(=O)NC4=O)C5=O)CC3)CC2)ccc1Nc1ncc(Cl)c(Nc2ccccc2P(C)(C)=O)n1 (stereo not shown) [Compound C182, 3-(4-(3-(4-(4-(1-(4-((5-chloro-4-((2-(dimethylphosphoryl)phenyl)amino)pyrimidin-2-yl)amino)-3-methoxyphenyl)piperidin-4-yl)piperazin-1-yl)butoxy)prop-1-yn-1-yl)-1-oxoisoindolin-2-yl)piperidine-2,6-dione] | 1 to 100 nM | 1 to 100 nM | 

Next, values leading:

GI50 [1] | GI50 [2] | GI50 [3] | Compound
1 to 100 nM | > 300 nM |  | COc1cc(N2CCC(N3CCN(CCCCCCCCC#Cc4cccc5c4CN(C4CCC(=O)NC4=O)C5=O)CC3)CC2)c(C)cc1Nc1ncc(Br)c(Nc2ccc3nccnc3c2P(C)(C)=O)n1 (stereo not shown) [Compound C188, 3-(4-(10-(4-(1-(4-((5-bromo-4-((5-(dimethylphosphoryl)quinoxalin-6-yl)amino)pyrimidin-2-yl)amino)-5-methoxy-2-methylphenyl)piperidin-4-yl)piperazin-1-yl)dec-1-yn-1-yl)-1-oxoisoindolin-2-yl)piperidine-2,6-dione]
1 to 100 nM | 1 to 100 nM |  | COc1cc(N2CCC3(CCN(CCCCCCCC#Cc4cccc5c4CN(C4CCC(=O)NC4=O)C5=O)CC3)CC2)c(C)cc1Nc1ncc(Br)c(Nc2ccc3nccnc3c2P(C)(C)=O)n1 (stereo not shown) [Compound C173, 3-(4-(9-(9-(4-((5-bromo-4-((5-(dimethylphosphoryl)quinoxalin-6-yl)amino)pyrimidin-2-yl)amino)-5-methoxy-2-methylphenyl)-3,9-diazaspiro[5.5]undecan-3-yl)non-1-yn-1-yl)-1-oxoisoindolin-2-yl)piperidine-2,6-dione]
1 to 100 nM | 1 to 100 nM | 1 to 100 nM | COc1cc(N2CCC(N3CCN(CCCCCCCC#Cc4cccc5c4CN(C4CCC(=O)NC4=O)C5=O)CC3)CC2)c(C)cc1Nc1ncc(Br)c(Nc2ccc3nccnc3c2P(C)(C)=O)n1 (stereo not shown) [Compound C183, 3-(4-(9-(4-(1-(4-((5-bromo-4-((5-(dimethylphosphoryl)quinoxalin-6-yl)amino)pyrimidin-2-yl)amino)-5-methoxy-2-methylphenyl)piperidin-4-yl)piperazin-1-yl)non-1-yn-1-yl)-1-oxoisoindolin-2-yl)piperidine-2,6-dione]
1 to 100 nM | 1 to 100 nM |  | COc1cc(N2CCC(N3CCN(CCCCCC#Cc4ccc5c(c4)CN(C4CCC(=O)NC4=O)C5=O)CC3)CC2)c(C)cc1Nc1ncc(Br)c(Nc2ccc3nccnc3c2P(C)(C)=O)n1 (stereo not shown) [Compound C163, 3-(5-(7-(4-(1-(4-((5-bromo-4-((5-(dimethylphosphoryl)quinoxalin-6-yl)amino)pyrimidin-2-yl)amino)-5-methoxy-2-methylphenyl)piperidin-4-yl)piperazin-1-yl)hept-1-yn-1-yl)-1-oxoisoindolin-2-yl)piperidine-2,6-dione]
1 to 100 nM | 1 to 100 nM |  | COc1cc(N2CCC3(CCN(CCCCCCC#Cc4cccc5c4CN(C4CCC(=O)NC4=O)C5=O)CC3)CC2)c(C)cc1Nc1ncc(Br)c(Nc2ccc3nccnc3c2P(C)(C)=O)n1 (stereo not shown) [Compound C172, 3-(4-(8-(9-(4-((5-bromo-4-((5-(dimethylphosphoryl)quinoxalin-6-yl)amino)pyrimidin-2-yl)amino)-5-methoxy-2-methylphenyl)-3,9-diazaspiro[5.5]undecan-3-yl)oct-1-yn-1-yl)-1-oxoisoindolin-2-yl)piperidine-2,6-dione]
1 to 100 nM | 1 to 100 nM |  | COc1cc(N2CCC(N3CCN(CCCCC#Cc4cccc5c4CN(C4CCC(=O)NC4=O)C5=O)CC3)CC2)c(C)cc1Nc1ncc(Br)c(Nc2ccc3nccnc3c2P(C)(C)=O)n1 (stereo not shown) [Compound C186, 3-(4-(6-(4-(1-(4-((5-bromo-4-((5-(dimethylphosphoryl)quinoxalin-6-yl)amino)pyrimidin-2-yl)amino)-5-methoxy-2-methylphenyl)piperidin-4-yl)piperazin-1-yl)hex-1-yn-1-yl)-1-oxoisoindolin-2-yl)piperidine-2,6-dione]
